Laboratory results reported in US20240262812A1, “N-SUBSTITUTED PHENYLSULFONAMIDE COMPOUND AND USE THEREOF” (Shanghai Leado Pharmatech Co., Ltd., priority 2021, published 2024).

Legend:
[1] = system: DNBS, TNBS, or DSS induced colitis; details: administration of selective TRPA1 inhibitor; background; cited from earlier work
[2] = system: acute gastric mucosal injury; details: background; cited from earlier work
mTRPA1 = biological target: T1, mTRPA1 (Mus musculus, UniProt Q8BLA8); assay: IonWorks Barracuda (IWB) automated patch clamp, TRPA1 inhibitory activity; type: cell-based; details: HEK293 cells stably expressing mTRPA1, current induced by AITC, amplitude at +100 mV; read-out: IC50 (inhibition activity on TRPA1)
T1 construct: expressed in transfected cells
T1 sequence (Q8BLA8 whole entry): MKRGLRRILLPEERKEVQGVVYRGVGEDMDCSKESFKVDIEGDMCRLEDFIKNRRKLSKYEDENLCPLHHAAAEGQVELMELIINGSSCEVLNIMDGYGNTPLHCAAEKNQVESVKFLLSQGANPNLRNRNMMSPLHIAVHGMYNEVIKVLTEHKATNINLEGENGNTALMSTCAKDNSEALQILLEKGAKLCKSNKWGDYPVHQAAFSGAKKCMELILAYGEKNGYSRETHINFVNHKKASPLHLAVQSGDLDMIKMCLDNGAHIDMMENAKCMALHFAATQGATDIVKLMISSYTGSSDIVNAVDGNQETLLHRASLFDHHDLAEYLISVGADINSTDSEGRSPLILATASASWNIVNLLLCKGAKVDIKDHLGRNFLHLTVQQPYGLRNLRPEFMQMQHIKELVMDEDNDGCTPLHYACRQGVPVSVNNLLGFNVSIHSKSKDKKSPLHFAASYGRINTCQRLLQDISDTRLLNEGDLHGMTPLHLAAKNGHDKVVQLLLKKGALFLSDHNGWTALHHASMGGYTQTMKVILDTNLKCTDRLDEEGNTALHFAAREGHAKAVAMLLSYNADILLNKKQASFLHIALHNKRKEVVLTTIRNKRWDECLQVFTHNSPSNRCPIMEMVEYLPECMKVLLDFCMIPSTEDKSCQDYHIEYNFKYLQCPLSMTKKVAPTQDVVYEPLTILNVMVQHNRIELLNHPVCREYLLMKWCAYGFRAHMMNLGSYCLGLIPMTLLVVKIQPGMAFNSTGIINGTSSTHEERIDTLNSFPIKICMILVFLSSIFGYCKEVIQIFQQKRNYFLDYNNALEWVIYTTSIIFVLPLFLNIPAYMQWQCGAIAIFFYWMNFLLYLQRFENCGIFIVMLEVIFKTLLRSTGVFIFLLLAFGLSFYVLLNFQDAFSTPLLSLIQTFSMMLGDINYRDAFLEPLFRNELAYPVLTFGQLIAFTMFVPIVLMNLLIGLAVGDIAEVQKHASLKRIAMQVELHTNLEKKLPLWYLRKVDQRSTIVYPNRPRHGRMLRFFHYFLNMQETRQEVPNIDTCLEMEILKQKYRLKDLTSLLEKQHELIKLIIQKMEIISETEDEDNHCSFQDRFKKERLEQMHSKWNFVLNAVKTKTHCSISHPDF
Procedure, shortened: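 HEK293 cells stably expressing mouse TRPA1, perforated-patch whole-cell recording (amphotericin B) on IonWorks Barracuda; holding 0 mV, −100 to +100 mV ramp over 300 ms every 10 s. Current evoked by 300 µM AITC, leak-subtracted, amplitude taken at +100 mV; IC50 from fitted dose-effect curves, HC030031 as plate reference.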

chemokine receptor CCR9 = biological target: T2, chemokine receptor CCR9 (Homo sapiens, UniProt P51686); assay: CCR9 antagonistic activity, calcium flow (Fluo-4, FlexStation), CCL25 agonist; type: cell-based; details: antagonistic mode, CCL25 150 nM; for inhibition at 100 µM: read-out: Inhibition rate (%) (100 μM)
T2 construct: expressed in transfected cells
T2 sequence (P51686 1-369): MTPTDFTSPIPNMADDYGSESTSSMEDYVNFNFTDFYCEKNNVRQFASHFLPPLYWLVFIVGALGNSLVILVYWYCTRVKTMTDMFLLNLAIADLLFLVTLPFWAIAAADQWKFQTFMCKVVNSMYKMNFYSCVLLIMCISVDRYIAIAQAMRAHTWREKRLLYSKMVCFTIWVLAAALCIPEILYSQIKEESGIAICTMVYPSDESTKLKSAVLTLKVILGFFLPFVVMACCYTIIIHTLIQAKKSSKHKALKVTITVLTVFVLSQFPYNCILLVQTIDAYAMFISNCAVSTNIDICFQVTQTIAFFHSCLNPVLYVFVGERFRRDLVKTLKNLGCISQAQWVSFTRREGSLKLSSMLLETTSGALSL
Description: 2.1 Main reagents: DMEM culture medium (GIBCO); dimethyl sulfoxide (Sigma); FLUO-4, AM (Invitrogen) 2.2 Main instrument: Flexstation-3 (Molecular Devices) The test concentration gradient of the compound and replicates were set according to the requirement of testing ICSO. All test substances with 8 concentrations were set, with 3 replicates for each concentration. By establishing a cell line that cotransformed the receptor and G16, the receptor being activated can induce the activation of Gα16 protein, thereby activating phospholipase C (PLC) to produce IP3 and DAG. IP3 can bind to the IP3 receptor on the intracellular endoplasmic reticulum and mitochondria, leading to the release of intracellular calcium. Therefore, measuring changes in intracellular calcium can serve as a method for detecting the activation status of target receptor. Fluo-4/AM is a calcium fluorescent probe indicator used to measure calcium ion, as a non-polar lipophilic compound, under the action of cell lipase after entering cells, the AM group dissociates and releases Fluo-4; since Fluo-4 is a polar molecule, it is not easy to pass through lipid bilayers, allowing it to remain in the cell for a long time. Ultimately, the level of G protein activation can be reflected by measuring the excited fluorescence intensity. […] Cells stably expressing the target receptor/Ga16 were planted on a 96 well plate and cultured overnight. 2. The culture solution was removed from the well planted cells, then 40 μL/well of freshly prepared dye was added. The mixture was incubated at a constant temperature in a 37° C. incubator for 40 minutes. 3. The drug to be tested was diluted with calcium buffer and mixed well. 4. The dye was absorbed and discarded. After washed once with freshly prepared calcium buffer, 50 μL of calcium buffer that dissolved the drug to be tested was added for replacement. 5. The FlexStation II instrument was used for detection. Starting from the 15th second, […] dissolved with known agonist was automatically added by the instrument, and finally the fluorescence value at 525 nm was readed. The following formula was used to calculate the cell response rate (% Response) for each sample under each concentration. […] IC50 value was calculated using GraphPad Prism.

[3] = system: DNBS induced colitis in Wistar rats; assay: DNBS induced colitis model in Wistar rats; type: in vivo, rat; design: Degree of adhesion (score) / Degree of intestinal infarction (score) / Severity of ulcer (score) / Degree of intestinal wall thickening (score) / Macroscopic colon score: scale not given here; details: oral once a day Day 0 to Day 6, compounds 10 mg/kg, osalazine sodium 300 mg/kg
Description: The therapeutic effect of compounds prepared in some examples of the present invention on 2,4-dinitrobenzenesulfonic acid (DNBS) induced ulcerative colitis in Wistar rats (corresponding to Crohn's disease) was investigated.
• Animal species and strains: Wistar rats • Administration record: No administration history • Gender and weight: Male, about 150 g • Breeding party/supplier: Shanghai SLAC Laboratory Animal Co., Ltd • Adaptation period: 5 days • Room: Regular Area Rooms • Indoor temperature: 20-26° C. • Indoor relative humidity: 40-70% • Lighting: Fluorescent lighting, 12-hour illumination (08:00-20:00) and 12-hour no illumination • Animal feeding: 2-4 rats per cage (same administration group) • Food: Unlimited access to feed (disinfected by irradiation, Jiangsu Xietong Pharmaceutical Bio-engineering Co., Ltd., China) • Water: Unlimited access to drinking water (treated with reverse osmosis and high-pressure sterilization)
A total of 80 Wistar rats were purchased from Shanghai SLAC Laboratory Animal Co., Ltd, of which 10 were used as backup animals to select animals with suitable weight range included in the groups, in order to control the fluctuation of disease severity caused by weight fluctuations.
BioBook software was used to screen 70 animals for random grouping based on animal weight to ensure that the weight values of each group of animals were similar to reduce bias.
3.1 DNBS powder was dissolved in 30% ethanol with a final concentration of 60 mg/mL.
3.2 Induction of colorectal inflammation: Before the experiment, rats were fasted for 40 hours and subcutaneously injected with 5% glucose saline during the fasting period. On the day 0 of the experiment, fasting rats were anesthetized by intraperitoneal injection of Zoletil and 5 mg/kg Xylazine. G2 group-G7 group, a hose was extended from the anus to the left curvature of the colorectum, and colorectal inflammation in rats was induced with DNBS enema. The normal control group (G1) was treated with 30% ethanol enema using the same method.
3.3. Dosage regimen: After DNBS induction in G1 and G2 groups of animals, solvent was administered. After DNBS induction in G3 group, 300 mg/kg of oxalazine sodium was administered. After DNBS induction in G4 to G7 groups, 10 mg/kg of the compounds of the present invention were administered respectively. Please refer to Table 3 for the administration time, specific administration dosage, and administration route. Starting from day 0 of modeling, the drugs were administered continuously for 7 days, and the animals were euthanized on day 6.
3.4 Testing indicators: After the experiment, all animals were euthanized by inhaling excessive CO2 and dislocation of cervical vertebra. After the abdominal cavity was cut open, the colorectum was taken out and the length of it was immediately measured. Then the colorectum was longitudinally cut open and rinsed clean. The weight of the colorectum and the area of the ulcer were recorded and the whole was photographed. At the same time, the damage to the rat colorectum was evaluated macroscopically according to Table 4.
The health status of animals and their comprehensive response to surgery and medication were observed every day.
The experimental data was calculated as mean±standard error. Statistical analysis was performed using Graphpad Prism, SPSS, or Sigmaplot software. The specific data is presented in the form of charts. P<0.05 is considered to have statistical differences.

In the case of `CC(C)c1ccc(NC(=O)Cn2cnc3c2c(=O)n(C)c(=O)n3C)cc1` [HC-030031, HC030031], the “symptom of colitis in animals” value [1] is listed as “significantly alleviated the symptom of colitis in animals” and the “result in rat model of acute gastric mucosal injury” value [2] is listed as “showed positive result”.

`O=S(=O)(Nc1ccc(CN2CC(F)C2)cc1-c1ccco1)c1ccsc1` [IJ-2, N-(4-((3-fluoroazetidin-1-yl)methyl)-2-(furan-2-yl)phenyl)thiophene-3-sulfonamide] gave an IC50 (mTRPA1) of 1 to 5 µM, an inhibition at 100 µM (chemokine receptor CCR9) of 30% and an IC50 (chemokine receptor CCR9) of over 100 µM.

For `CNCc1ccc(-n2cccc2)c(NS(=O)(=O)c2ccccc2)c1` [IQ-1, N-(5-((methylamino)methyl)-2-(1H-pyrrole-1-yl)phenyl)benzenesulfonamide], the IC50 (mTRPA1) was 1 to 5 µM, the inhibition at 100 µM (chemokine receptor CCR9) was 22% and the IC50 (chemokine receptor CCR9) was over 100 µM.

`CNCc1ccc(-n2cccn2)c(NS(=O)(=O)c2ccccc2)c1` [IQ-2, N-(5-((methylamino)methyl)-2-(1H-pyrazol-1-yl)phenyl)benzenesulfonamide] showed an IC50 (mTRPA1) of 1 to 5 µM, an inhibition at 100 µM (chemokine receptor CCR9) of 17% and an IC50 (chemokine receptor CCR9) of over 100 µM.

Work on `NCCc1ccc(NS(=O)(=O)c2ccsc2)c(-c2ccco2)c1` [IR, N-(4-(2-aminoethyl)-2-(furan-2-yl)phenyl)thiophene-3-sulfonamide] yielded an IC50 (mTRPA1) of 1 to 5 µM, an inhibition at 100 µM (chemokine receptor CCR9) of 25% and an IC50 (chemokine receptor CCR9) of over 100 µM.

For `O=C([O-])c1cc(/N=N/c2ccc(O)c(C(=O)[O-])c2)ccc1O.[Na+].[Na+]` [osalazine sodium, reference compound], the “Degree of adhesion (score)” value ([3]; mean score per Table 4) was 0.00, the “Degree of intestinal infarction (score)” value ([3]; mean score per Table 4) was 0.00 and the “Degree of intestinal wall thickening (score)” value ([3]; mean score per Table 4) was 0.40. For the same compound, the “Severity of ulcer (score)” value ([3]; mean score per Table 4) was 1.50, the Macroscopic colon score ([3]; mean total score) was 1.90 and the Colon length ([3]; mean) was 14.33 cm. The Colon weight ([3]; mean) was 1.41 g, the Ulcer area ([3]; mean) was 0.30 cm^2 and the Ulcer length ([3]; mean) was 0.71 cm. The Ulcer width ([3]; mean) was 0.34 cm.

For `O=C([O-])c1cc(/N=N/c2ccc(O)c(C(=O)[O-])c2)ccc1O.[Na+].[Na+]` [oxalazine sodium, reference compound], the Colon weight ([3]; mean) was “significantly reduce” and the Ulcer area ([3]; mean) was “significantly reduce”.
